Structures are written as SMILES.

The text below walks through data of US20220409573A1, “Hippocampus Regeneration And Memory Recovery” (INNOBIOSCIENCE, LLC, priority 2021, published 2022).

For series [1], the system named is APPswe/PS-1 double transgenic mice. Briefly: Classical Morris Water Maze test. Format: in vivo. As to conditions: 12 month-old APPswe/PS-1 mice, 2.0 mg/kg IP three times per week, four weeks, vs Tg control.
Series [2] concerns Aβ aggregates in brain of APPswe/PS-1 mice. In words: Thioflavine-S staining of amyloid plaques in treated APPswe/PS-1 mice. The series is classed as in vivo.
The test system of series [3] is dentate gyrus of the hippocampus of wild-type mice. In words: Adult hippocampal neurogenesis (Ki67, DCX immunofluorescence). Format: in vivo. As to conditions: for percentage of the granular cell layer covered by DCX staining / total number of Ki67+ cells in the SGZ: vs vehicle, 2 mg/kg. The procedure: Animals. Two-month-old C57BC6 wild-type mice were treated and handled according to National Institutes of Health guidelines (NIH, […], Md.). The treatments were performed by intraperitoneal (ip) injection of 2.0 mg/kg ANDRO and wild-type control animals were injected only with saline solution as vehicle.
Perfusion and postfixation. Mice were anesthetized (100 μg ketamine+10 μg xylazine in 10 μl saline/g), and then transcardially perfused with saline, followed by 4% paraformaldehyde (PFA) in 0.1M PBS. The brains were removed and incubated inPBS-4% PFA for 24 h at room temperature, dehydrated in 30% sucrose andkept at 4° C. until analysis.
Tissue sectioning. After dehydration,each mouse brain was sectioned on a cryostate in 12 sets of serial coronal sections of 40 μm thickness (Leica Microsystems,Wetzlar, Germany) and collected in ice-cold-PBS in multiwell dishes.Each set contained 5-7 sections covering the entire length of the hippocampus.
Inmunofluorescence for Ki67 and Doublecortin (DCX). Sections were washed with PBS 3 times for 5 min and then incubated in blocking solution (3% donkey serum, 3% BSA, 0.5% Triton X-100 in PBS) for 4 h. Then, tissues were incubated overenight with primary antibodies at 4° C. Primary antibodiesused were:rabbit anti-Ki67 (Abcam), rabbit anti-DCX (Cell Signaling Technology Inc., Beverly, Mass., USA), monoclonal anti-NeuN (Millipore, Billerica, Mass., USA). After washing 3 times with 0.5% Triton X-100 PBS, sections were incubated with Dy Light (Abcam) conjugated secondary antibodies for 2 h at room temperature. Slices were mounted on gelatin-coated slides with Fluoromont-G(Electron Microscopy Sciences, Hatfield, Pa., USA). For quantification, Ki67 positive cells were countedusing a fluorescence microscope (Olympus BX51, Tokyo, Japan). Cells were counted in all sections of one set (see tissue sectioning). Total cells counted in one set were multiplied by the total number of sets to obtain an estimation of the total number of Ki67+ cells in the complete hippocampus. For quantification of the % area covered by DCX, double labeling DCX/NeuN was carried. The total area of the granular cell layer was estimated as the area positive for NeuN staining and the percentage of this area covered by DCX staining was estimated. This image analysis was carried out using the ImageJ software (NIH, USA). Images shown were analyzed by confocal laser microscopy (Olympus FV 1000) and z-projections were generated with ImageJ software.

Series [4] relates to synaptic proteins in hippocampus and cortex of APPswe/PS-1 mice. In words: Immunoblotting of synaptic proteins in treated APPswe/PS-1 mice. Format: in vivo.
The test system of series [5] is tau phosphorylation in the hippocampus of APPswe/PS-1 mice. In words: Tau phosphorylation immunoblot (PHF-1, AT8) in treated APPswe/PS-1 mice. The series is classed as in vivo. The settings on record: hippocampus of 6 month-old APPswe/PS-1 mice, vs untreated. Background: Immunoblotting shows a protein as a band on a membrane.
Series [6] has as its system AT8-positive neurons in APPswe/PS-1 mice. In words: AT8 immunohistochemistry in treated APPswe/PS-1 mice. The series is classed as in vivo.
A short description of series [7]: Side effects in treated animals. As to conditions: in vivo.
Where [8] appears, read: young APPswe/PS-1 mice, vs controls.
Where [9] appears, read: 2-month-old mice, 2 mg/kg i.p. 3 times per week for 4 weeks.

With `C=C1CC[C@@H]2C(C)(CO)[C@H](O)CC[C@@]2(C)C1C/C=C1/C(=O)OC[C@H]1O` (stereo in doubt) [ANDRO, 3-(2-(Decahydro-6-hydroxy-5-(hydroxymethyl)-5,8a-dimethyl-2-methylenenaphthyl)ethylidene)dihydro-4-hydroxyfuran-2(3H)-one], the escape latency entry in series [1] is recorded as “significantly lower escape latency values”. In series [2] (7 month-old APPswe/PS-1 mice), the “plaque size distribution (cumulative frequency)” value is “shift in their distribution toward smaller plaque size”. For the same molecule, the “amyloid plaques stained with Th-S” value in series [2] (7 month-old APPswe/PS-1 mice, cortex and hippocampus, vs untreated) is listed as “reduction of amyloid plaques”. Moreover, the “amyloid deposit levels (amyloid burden area)” value in series [2] (hippocampus or cortex, FIG. 3F (12 month-old mice per legend)) is listed as “no change in amyloid deposit levels”. Also, in series [2] (setting [8]), the “immature plaques (type 1)” value was “increase significantly”; the “type 2a and 2c plaques in the total brain” value is given as “no significant differences”; the “type 2b plaques” value is recorded as “significantly decreased”. In series [3] (setting [9]), the “density of immature neurons positive for DCX” value was “increase in the density of immature neurons”, the “percentage of the granular cell layer covered by DCX staining” value was “significantly increased” and the “total number of Ki67+ cells in the SGZ” value was “significantly increased the total number of Ki67^+ cells”. In addition, in series [3] (2-month-old mice, 2 mg/kg i.p. 3 times per week for 4 weeks, listed as Ando), the “total number of Ki67+ cells in the SGZ” value is given as “significant increase in the total number of Ki67^+ cell”. The “percentage of the granular cell layer covered by DCX staining” value in series [3] (2-month-old mice, 2 mg/kg i.p. 3 times per week for 4 weeks, listed as Andro) is on record as “significant increase in the percentage of the granular cell layer area covered by DCX staining”. The “morphology of DCX+ cells” value in series [3] (compared to control mice) is on record as “more complex morphology”. In addition, the “PSD-95 and GluA2 levels” value in series [4] (mature (12-month-old) Tg mice) is “increase of PSD-95 and GluA2 levels”. In addition, the “total levels of pre-synaptic proteins SYP and VAMP” value in series [4] (young APPswe/PS-1 mice) is “unaltered”. Further, the “levels of post-synaptic proteins (Shank, GluN2B, GluA2, PSD-95)” value in series [4] (young APPswe/PS-1 mice, hippocampus and cortex) is reported as “significantly recovers the post-synaptic proteins”. Moreover, in series [5], the “PHF-1- and AT8-positive tau levels” value is “reduction in PHF-1- and AT8-positive tau levels”. Besides, the “number of AT8-positive neurons next to amyloid deposits” value in series [6] (6 month-old APPswe/PS-1 mice, circular area surrounding plaques) is listed as “clear decrease in the number of AT8-positive neurons”. Besides, the “total AT8-positive cells outside the circular area around the plaques” value in series [6] (hippocampus) is reported as “decrease in the number of these cells”. Also, the “side effects in animals” value in series [7] was “seems not to cause side effects in animals”.
